In ChEMBL document CHEMBL1201862, “PubChem BioAssay data set” (2004):
The source made the active and inactive calls.

Experiments:
Cytochrome P450 2C19 = Cytochrome P450 2C19 (Homo sapiens, UniProt P33261); assay: Cytochrome panel assay with activity outcomes. Panel member name: p450-cyp2c19 Compounds with AC50 equal or less than 10 uM are considered active; format: functional
[1] = inhibitors of intracellular T. cruzi replication, confirmation, NIH3T3 host cells, beta-gal luminescence (AID 2044); format: functional, cell-based;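 further: intracellular parasites grown in NIH/3T3 mouse fibroblasts as host cells; luminescent beta-galactosidase reporter signal from transgenic T. cruzi replicating inside host cells; inhibitors lower the luminescence signal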
[2] = cytotoxicity toward NIH3T3 fibroblasts, dose response, counter-screen, cell-based, ATP luminescence, mouse fibroblasts (AID 2010); format: functional;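 further: cells exposed to compound for about 90 hours before reading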
[3] = molecular target: T1, Rac GTPase-activating protein 1 (Homo sapiens, UniProt Q9H0H5); assay: MgcRacGAP GTPase-activating activity inhibitors, confirmation, biochemical, ADP Hunter fluorescence, primary and confirmatory (AID 624330); format: functional
T1 sequence (Q9H0H5 whole entry): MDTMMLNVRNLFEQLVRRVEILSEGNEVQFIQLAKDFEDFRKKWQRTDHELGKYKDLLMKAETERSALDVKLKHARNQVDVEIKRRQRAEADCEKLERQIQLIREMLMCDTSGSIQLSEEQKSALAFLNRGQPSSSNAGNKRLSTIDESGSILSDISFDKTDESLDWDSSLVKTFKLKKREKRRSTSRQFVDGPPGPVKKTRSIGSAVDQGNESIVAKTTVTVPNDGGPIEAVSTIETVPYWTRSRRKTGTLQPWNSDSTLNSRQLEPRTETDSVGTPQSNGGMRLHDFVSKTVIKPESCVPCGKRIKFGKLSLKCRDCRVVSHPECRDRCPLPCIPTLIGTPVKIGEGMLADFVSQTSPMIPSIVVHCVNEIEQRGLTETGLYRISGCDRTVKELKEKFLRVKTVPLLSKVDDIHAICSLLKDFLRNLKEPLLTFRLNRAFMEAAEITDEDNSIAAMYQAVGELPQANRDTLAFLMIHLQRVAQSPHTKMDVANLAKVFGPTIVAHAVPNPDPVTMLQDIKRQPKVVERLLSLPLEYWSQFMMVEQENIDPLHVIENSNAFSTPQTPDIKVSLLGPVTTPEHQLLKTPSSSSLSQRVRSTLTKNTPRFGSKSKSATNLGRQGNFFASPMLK

[4] = HEp-2 cell cytotoxicity, dose response, cytotoxicity control for RSV inhibitor project, HTS (AID 2410); format: functional; conditions: human respiratory syncytial virus
[5] = molecular target: T2, Heat shock factor protein 1 (Mus musculus, UniProt P38532); assay: inhibition of MG132-induced HSE-luciferase signal, confirmation, cell-based, NIH3T3, luminescence, dose retest (AID 2382); format: functional;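 further: NIH3T3 fibroblasts with HSF1-driven luciferase reporter stressed by proteasome inhibitor MG132; luminescence from HSF1-driven luciferase expression after 8 hours of MG132 stress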
T2 sequence (P38532 whole entry): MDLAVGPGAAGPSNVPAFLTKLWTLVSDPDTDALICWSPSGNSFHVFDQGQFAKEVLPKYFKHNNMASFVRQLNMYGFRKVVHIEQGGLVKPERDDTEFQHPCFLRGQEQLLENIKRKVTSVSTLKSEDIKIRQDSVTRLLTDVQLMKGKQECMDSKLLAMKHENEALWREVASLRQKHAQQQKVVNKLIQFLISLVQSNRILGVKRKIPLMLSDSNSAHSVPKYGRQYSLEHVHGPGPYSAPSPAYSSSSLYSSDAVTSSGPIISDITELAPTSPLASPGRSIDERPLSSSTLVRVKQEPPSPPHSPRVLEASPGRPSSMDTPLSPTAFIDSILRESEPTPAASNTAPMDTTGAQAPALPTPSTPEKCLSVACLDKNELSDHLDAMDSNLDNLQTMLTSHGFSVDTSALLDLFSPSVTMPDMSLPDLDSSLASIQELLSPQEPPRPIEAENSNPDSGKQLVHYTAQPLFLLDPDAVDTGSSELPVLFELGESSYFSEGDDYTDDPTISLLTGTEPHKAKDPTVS

Cytochrome P450 1A2 = molecular target: T3, Cytochrome P450 1A2 (Homo sapiens, UniProt P05177);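 further: PubChem cytochrome P450 panel assay, CYP1A2 panel member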
T3 sequence (P05177 whole entry): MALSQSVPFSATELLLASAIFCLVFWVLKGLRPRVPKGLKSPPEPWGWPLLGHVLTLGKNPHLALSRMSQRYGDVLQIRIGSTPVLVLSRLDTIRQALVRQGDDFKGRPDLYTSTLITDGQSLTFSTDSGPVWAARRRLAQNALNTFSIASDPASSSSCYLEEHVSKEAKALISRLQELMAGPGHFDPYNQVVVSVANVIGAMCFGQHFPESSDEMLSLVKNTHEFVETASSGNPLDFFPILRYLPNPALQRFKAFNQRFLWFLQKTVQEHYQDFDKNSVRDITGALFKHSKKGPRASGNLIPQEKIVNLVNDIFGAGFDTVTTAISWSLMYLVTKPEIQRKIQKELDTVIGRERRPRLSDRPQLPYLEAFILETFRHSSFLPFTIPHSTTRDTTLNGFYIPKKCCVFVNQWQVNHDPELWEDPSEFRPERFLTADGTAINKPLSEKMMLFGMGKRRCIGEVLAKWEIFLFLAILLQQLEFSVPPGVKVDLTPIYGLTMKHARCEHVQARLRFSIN

Sequence of Cytochrome P450 2C19 (P33261 whole entry): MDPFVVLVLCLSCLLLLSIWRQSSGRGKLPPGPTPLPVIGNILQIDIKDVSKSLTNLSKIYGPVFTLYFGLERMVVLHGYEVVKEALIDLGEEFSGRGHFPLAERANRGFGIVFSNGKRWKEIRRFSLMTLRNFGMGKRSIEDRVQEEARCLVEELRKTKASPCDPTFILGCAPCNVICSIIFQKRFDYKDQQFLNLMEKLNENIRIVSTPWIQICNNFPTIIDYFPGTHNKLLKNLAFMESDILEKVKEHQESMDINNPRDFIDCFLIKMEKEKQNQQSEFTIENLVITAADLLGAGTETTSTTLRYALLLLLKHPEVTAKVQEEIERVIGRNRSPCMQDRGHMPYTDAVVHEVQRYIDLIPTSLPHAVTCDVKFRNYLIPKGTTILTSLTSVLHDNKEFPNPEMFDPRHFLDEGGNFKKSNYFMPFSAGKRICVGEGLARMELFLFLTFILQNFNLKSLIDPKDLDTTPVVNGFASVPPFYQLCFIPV

COC(=O)[C@@]1(Cc2ccc(OC)cc2)[C@H]2c3cc(C(=O)N4CCCC4)n(Cc4ccccn4)c3C[C@H]2CN1C(=O)c1ccccc1
AC50 (Cytochrome P450 2C19; read-out: AC50): 39.8 µM (inconclusive)

Cc1cccc(NS(=O)(=O)c2cc(C(=O)N3CCc4ccccc4C3)ccc2Cl)c1C
EC50 [1]: 2.18 µM (active)
EC50 [2]: > 60 µM (not active)

Cc1ccccc1OCCCN1CCCC1
AC50 (Cytochrome P450 2C19; read-out: AC50): 10 µM (inconclusive)

Cc1cccc(OCC(=O)N2CCN(Cc3ccncc3)CC2)c1
IC50 [3]: 82.9 µM (active)

CN(C)CCCN(C(=O)c1cccs1)c1nc2cc3c(cc2s1)OCO3
EC50 [1]: 0.163 µM (active)
EC50 [2]: > 60 µM (inconclusive)

Cc1nc(N2CCOCC2)nc(N2CCCCC2C)c1[N+](=O)[O-] (stereo not given)
CC50 [4]: 21.9 µM (active)

C[C@@]12C=CC(=O)C=C1CC[C@@H]1[C@@H]2[C@H](O)C[C@]2(C)[C@@H]1CC[C@]2(O)C(=O)CO
AC50 (Cytochrome P450 2C19): inconclusive

CCn1c(N=C(S)Nc2ccccc2)nc2ccccc21
EC50 [1]: 0.53 µM (active)
EC50 [2]: > 60 µM (inconclusive)

N#C[C@@H](/N=N\c1ccccc1C(=O)O)C(N)=O
AC50 (Cytochrome P450 2C19): inconclusive

Cc1cc(NC(=O)Cn2ccc([N+](=O)[O-])n2)no1
EC50 [5]: > 195 µM (not active)

CSc1ccccc1OCc1cc(C(=O)N(C)C2CCCc3ccccc32)no1 (stereo not given)
CC50 [4]: 20.4 µM (active)

Oc1ccc(N2CCN(Cc3ccc(OCCCN4CCCCC4)cc3)CC2)cc1
EC50 [1]: 0.114 µM (active)
EC50 [2]: > 30 µM (not active)

Cc1ccc(NC(=O)CCC(=O)NNC(=O)c2cccs2)c(C)c1
AC50 (Cytochrome P450 2C19; read-out: AC50): 28.2 µM (inconclusive)

CCc1noc(C)c1C(=O)Nc1ccc(S(=O)(=O)N2CCC(C)CC2)cc1
CC50 [4]: 32.9 µM (active)

COC(=O)c1ccc(-c2sc3nc(N4CCOCC4)c4c(c3c2N)CCCC4)o1
EC50 [1]: 2.63 µM (active)
EC50 [2]: 13.2 µM (active)

CCCCN(C)C(=O)C1CCN(Cc2cccc(OCc3ccccc3)c2)CC1
IC50 [3]: 172 µM (active)

COc1ccccc1CCNC1CCC(C(C)(C)C)CC1 (stereo not given)
EC50 [1]: 1.37 µM (active)
EC50 [2]: > 60 µM (not active)

COc1ccc2nc(Nc3ccccc3)sc2c1
CC50 [4]: 33.6 µM (active)

Cc1nn(Cc2c(F)c(F)c(F)c(F)c2F)c(C)c1NC(=O)c1cccc(COc2ccc(Cl)cc2)c1
AC50 (Cytochrome P450 1A2): 12.6 µM (inconclusive)

O=c1c2c([N+](=O)[O-])cc([N+](=O)[O-])cc2[s+]([O-])n1Cc1ccccc1 (stereo not given)
IC50 [3]: 46.6 µM (active)

O=C(c1ccco1)N(CCCN1CCOCC1)c1nc(-c2ccc(Cl)cc2)cs1
EC50 [1]: 1.8 µM (active)
EC50 [2]: > 60 µM (not active)

Cc1ccc(CNc2ncc(-c3ccccc3)n2C)o1
IC50 [3]: 83.2 µM (active)

Cc1n[nH]c(-c2ccc(OCc3cnn(-c4ccccc4)c3)cc2O)c1Oc1ccc(Cl)cc1
EC50 [1]: 2.43 µM (active)
EC50 [2]: > 60 µM (not active)

O=C(Cc1ccccc1)N1CCN(Cc2ccc(F)cc2)CC1
IC50 [3]: 130 µM (active)

Oc1ccc(Nc2ncnc3ccccc23)cc1
IC50 [3]: 15.5 µM (active)

COC(=O)C1Cc2c([nH]c3ccccc23)C2(CCN(Cc3ccccc3)CC2)N1 (stereo not given)
EC50 [1]: 1.6 µM (active)
EC50 [2]: 10.1 µM (active)

COc1cccc(CNc2ccc3c(c2)CCC3)c1
EC50 [1]: 7.93 µM (active)
EC50 [2]: > 60 µM (not active)

CN1c2ccccc2Oc2nnc(Cl)cc21
CC50 [4]: 43.3 µM (active)

O=[N+]([O-])c1nn(-c2ccc3c(c2)OCCO3)[n+]([O-])c1NCCCO
EC50 [1]: 0.75 µM (active)
EC50 [2]: > 60 µM (not active)

CC(C)=NNc1ncnc2[nH]cnc12
AC50 (Cytochrome P450 1A2): 0.794 µM (inconclusive)

COc1ccc(C(=O)/C=C/c2ccc(F)cc2)c(OC(=O)c2ccc([N+](=O)[O-])cc2)c1
CC50 [4]: 20.5 µM (active)

COc1cc(CN2CCC(C(=O)N3CCN(c4ccccc4F)CC3)CC2)ccc1O
IC50 [3]: 110 µM (active)

Nc1nc2c(s1)CCc1ccccc1-2
IC50 [3]: 41.4 µM (active)

Cc1cc(C)c(S(=O)(=O)c2ccccc2Cl)c(Cl)n1
EC50 [1]: 2.32 µM (active)
EC50 [2]: > 60 µM (not active)

COc1nc(OCCNC(C)=O)nc(N(C)C)n1
AC50 (Cytochrome P450 1A2): 39.8 µM (inconclusive)

CCC(=O)N(CCC(c1ccco1)c1ccccc1OC)Cc1cccs1 (stereo not given)
EC50 [5]: > 195 µM (not active)

Nc1ccc(N2CCCCC2)c(Cl)c1
IC50 [3]: 46.4 µM (active)

O=C(O)CCC(=O)CCC(=O)c1ccccc1
AC50 (Cytochrome P450 2C19; read-out: AC50): 39.8 µM (inconclusive)

COc1ccc(CC(=O)NCc2ccccn2)cc1OC
AC50 (Cytochrome P450 1A2): 14.1 µM (inconclusive)

COc1ccccc1/C=C/[C@@H]1C[C@H]2CN(Cc3cccc(Cl)c3)C(=O)[C@]23CCCN13
CC50 [4]: 38.4 µM (active)

O=c1c(CCc2ccccc2)nc2cncnc2n1Cc1ccccc1Cl
AC50 (Cytochrome P450 1A2): 12.6 µM (inconclusive)

O=C(O)[C@H](Cc1c[nH]c2ccccc12)N1C(=O)c2ccccc2C1=O
AC50 (Cytochrome P450 2C19): inconclusive

Cc1ccc2nc(-c3ccncc3)cc(C(=O)NCCc3ccc(F)cc3)c2c1
EC50 [1]: 1.7 µM (active)
EC50 [2]: > 60 µM (not active)

Cc1ccc(Nc2c([N+](=O)[O-])nn(-c3ccc(Cl)cc3)[n+]2[O-])cc1C
EC50 [1]: 0.747 µM (active)
EC50 [2]: > 60 µM (not active)

CCCCNc1[nH]c(=S)nc2cc(OC)c(OC)cc12
IC50 [3]: 61.8 µM (active)

CCCCc1c(O)nc2ccc(C)cc2c1C
CC50 [4]: 26.6 µM (active)

CN(C)c1oc(-c2ccc(OCc3ccc(Cl)cc3)cc2)nc1C#N
EC50 [1]: 8.31 µM (active)
EC50 [2]: > 60 µM (not active)

CCOC(=O)N1CCN(C(=O)c2ccc(NC(C)=O)cc2)CC1
AC50 (Cytochrome P450 2C19; read-out: AC50): 22.4 µM (inconclusive)

O=C(NCc1ccccc1Cl)c1cnccn1
AC50 (Cytochrome P450 1A2): 28.2 µM (inconclusive)
AC50 (Cytochrome P450 2C19; read-out: AC50): 20 µM (inconclusive)

COc1ccc([C@H]2CN(c3ccc(OC)cc3)C(=O)[C@@H]2CC(=O)Nc2ccccc2)cc1
IC50 [3]: 115 µM (active)

N#Cc1c(O)nsc1Nc1ccccc1
IC50 [3]: 79.5 µM (active)

O=C1NC(=O)/C(=C/c2cccc([N+](=O)[O-])c2)N1
CC50 [4]: 31.2 µM (active)

Oc1ccc(/C=N/Nc2cc(N3CCOCC3)nc(N3CCOCC3)n2)cc1
IC50 [3]: 45.3 µM (active)

Cc1ccc(-c2ccc(/C=N\NC(=O)C3C(=O)NCC3c3ccccc3)o2)cc1Cl (stereo not given)
CC50 [4]: 13 µM (active)

C/C(=N\c1ccc(O)cc1)c1sc2ccccc2c1O
IC50 [3]: 123 µM (active)

O=C(N/N=C/c1ccc([N+](=O)[O-])o1)C1CCCC1
EC50 [1]: 0.429 µM (active)
EC50 [2]: > 60 µM (not active)

C/C(=N\NC(=O)c1cc(-c2cccc(OC(C)C)c2)nc2ccccc12)c1cccnc1
EC50 [1]: 0.611 µM (active)
EC50 [2]: > 30 µM (not active)

Cc1ccc(-c2n[nH]cc2/C=N/n2c(C)nc3ccccc3c2=O)cc1
EC50 [5]: > 195 µM (not active)

C/C(Cc1ccccc1)=N\NC(=O)CNC(=O)Cc1ccc(Cl)cc1
EC50 [5]: > 195 µM (not active)

CCOc1cc(/C=N/NC(=O)c2ccc(=O)n(C)c2)ccc1O
IC50 [3]: 59.6 µM (active)

O=C1Nc2ccc(S(=O)(=O)O)cc2/C1=N/Nc1ccccc1[N+](=O)[O-]
AC50 (Cytochrome P450 1A2): 1 µM (inconclusive)

NNC(N)=O [HYDRAZINECARBOXAMIDE]
AC50 (Cytochrome P450 1A2): 39.8 µM (inconclusive)
